Patent US20260356826A1, “SALTS OF AMINO QUINAZOLINE DERIVATIVES” (CHIESI FARMACEUTICI S.P.A., priority 2023, published 2026)
≈ marks a conversion by molar mass, not a printed value. Entries after “also recorded” stand apart in the source; their conditions may differ. Where a name gives a salt, the structure may show the parent alone. One block for each compound: values may come before it.

Assays:
Format in all cases: physicochemical
[1] = Formulations with polymer: drug content and appearance; details: for Found conc.: nominal 40 mg/ml
Source text: The formulation having a 0.05 M citrate buffer concentration was chosen to be tested with the addition of polymers to investigate the effect due to a potential viscosity increase.
Different percentage of polymers were used, e.g. 5% w/v of polyvinylpyrrolidone (PVP) 40 or 1% w/v HPMC.
The formulations were studied with or without the use of the surfactant D-α-tocopherol polyethylene glycol succinate (Vit. E TPGS, Sigma Aldrich; CAS: 9002-96-4) in 0.05 M citrate buffer at pH 2.5 at the nominal concentration of 40 mg/ml. To prepare the vehicle the proper amount of citric acid was dissolved in water in a volumetric flask, then the pH was increased up to 2.5 using 0.1 M NaOH. Then water was added and brought to the final volume. The polymers PVP 40 (Sigma Aldrich; CAS: 9003-39-8) or HPMC (viscosity 46-60 cP; Sigma Aldrich; CAS: 9004-65-3) were gently dissolved in citrate buffer and left under magnetic stirring for at least 1 hour to their complete hydration. When required, Vit. E TPGS was subsequently added to the media and gently left under magnetic stirring to avoid bubbles formation.
The required volume of vehicle was added to a known amount of Compound A free base Form A or Mesylate salt Form 2, then sonicated at RT for at least 10 min. The formulation was kept under magnetic stirring for at least 10 min before analysis.

[2] = Dissolution in Fasted State Simulated Gastric Fluid (FaSSGF), manual experiment, 37 °C; details: for Solubility: 37 °C
Description: The dissolution in Fasted State Simulated Gastric Fluid (FaSSGF) of mesylate salt Form 2 of the compound A of Example 2 and esylate salt Form 1 of Example 6 in comparison with the free base Form A and with other salts was tested by means of manual experiment. The medium for simulated oral fluids was FaSSGF obtained from Biorelevant.com Ltd. The experiments were conducted for 60 minutes at 37 °C.
General preparation of salts: in a round-bottomed flask, 200 mg of compound A free base Form A according to Example 1 (0.52 mmol) were suspended in 5 ml of solvent and stirred at RT. Acetone was employed for bromide, ethanedisulfonate, malonate, sulfate, saccharinate, tosylate, orotate, besylate, hemisulfate, phosphate and tartrate salts; water was employed for chloride salt; ethyl formate was employed for maleate, oxalate, gentisicate, fumarate and mandelate salts; tetrahydrofuran was employed for camphorsulfonate and pamoate salts; isopropyl acetate was employed for 4-hydroxybenzoate and methanol for camphorate salt. The corresponding acid was added under stirring in equimolar amount (except for hemisulfate, added in 0.5 molar amount). After 1 hour the crystalline solid was isolated by filtration, washed with the corresponding solvent (2×1 ml) and dried under nitrogen for 2 hours.
The quantification of the dissolved amount was done by LC/UV system at different checkpoints up to 60 minutes. The saturation solution concentration was around 25-30 mg/ml. […] In a second experiment, the quantification was repeated with saturation solution concentration 170 mg/ml for the mesylate salt Form 2 and 100 mg/ml for the esylate salt Form 1. The results are reported in tables 8A, 8B, 8C, 8D and FIG. 28.

[3] = Stability of mesylate salt Form 2 on storage (UPLC/UV/MS and XRPD), open and closed conditions; details: for Stability: one year; for XRPD pattern change: open and closed; for % area main peak: 0 days; for Stability (overall): regular and stressed storage conditions
Description: The samples were dissolved in solvent (water/ACN 40/60) at about 1 mg/mL and diluted at about 0.07 mg/mL.
Approximately 120 mg of mesylate salt Form 2 of Compound A according to Example 2 was stored in a properly labelled open amber glass vial covered with filter paper to simulate open conditions, and in a screw cap glass to simulate closed conditions. The samples were prepared such that a layer of powder was uniformly spread on the bottom of the vial. Approximately 70 mg of powder were weighed in hydroxypropyl methylcellulose (HPMC) capsules size 3 (Capsugel) and for each condition two capsules were stored. The samples were placed at RT in a desiccator with NaBr to reach about 60% RH and in a stability chamber to reach 75% RH at 40 °C. The stability of the mesylate salt Form 2 of Compound A was thereby tested in four distinct conditions: open condition at 25 °C/60% RH, closed condition at 25 °C/60% RH, open condition at 40 °C/75% RH, and closed condition at 40 °C/75% RH. At the time points 0, 14, 28, 56, 84, 168 and 365 days the corresponding samples were removed from the stability chambers. After conditioning at RT, the samples were analyzed by UPLC/UV/MS and XRPD. One or two extra samples were stored for every condition.

[4] = 1% w/v HPMC, 1% w/v Vit. E TPGS, 0.05 M citrate buffer pH 2.5
[5] = 5% w/v PVP, 1% w/v Vit. E TPGS, 0.05 M citrate buffer pH 2.5
[6] = 5% w/v PVP, 0.05 M citrate buffer pH 2.5

Appearance [1, 4]: Suspension
Mean recovery [1, 4]: 104.9%
Found conc. [1, 4]: 41.96 mg/mL
Appearance [1, 5]: Suspension
Mean recovery [1, 5]: 111.18%
Found conc. [1, 5]: 44.47 mg/mL
Appearance [1, 6]: Suspension
Mean recovery [1, 6]: 100.3%
Found conc. [1, 6]: 40.12 mg/mL
Appearance ([1]; all formulations with polymer): suspensions
Solubility ([2]; first experiment (saturation conc. around 25-30 mg/ml), 5 min): 6.87 mg/mL (≈ 18.1 mM)
Solubility ([2]; first experiment, 10 min): 7.01 mg/mL (≈ 18.4 mM)
Solubility ([2]; first experiment, 20 min): 6.84 mg/mL (≈ 18 mM)
Solubility ([2]; first experiment, 40 min): 6.89 mg/mL (≈ 18.1 mM)
Solubility ([2]; first experiment, 60 min): 6.89 mg/mL (≈ 18.1 mM)
Solubility ([2]; second experiment (saturation conc. 170 mg/ml mesylate, 100 mg/ml esylate), 0 min): 0.63 mg/mL (≈ 1.66 mM)
Solubility ([2]; second experiment, 15 min): 12.77 mg/mL (≈ 33.6 mM)
Solubility ([2]; second experiment, 30 min): 11.89 mg/mL (≈ 31.3 mM)
Solubility ([2]; second experiment, 60 min): 13.47 mg/mL (≈ 35.4 mM)
SMILES: COc1cc(-c2ccc(F)cn2)cc2c(N[C@H](C)c3noc(C)n3)ncnc12 [free base Form A, (R)-6-(5-fluoropyridin-2-yl)-8-methoxy-N-(1-(5-methyl-1,2,4-oxadiazol-3-yl)ethyl)quinazolin-4-amine]

Appearance [1, 4]: Solution
Mean recovery [1, 4]: 111.10%
Found conc. [1, 4]: 44.44 mg/mL
Appearance [1, 5]: Solution
Mean recovery [1, 5]: 112.20%
Found conc. [1, 5]: 44.87 mg/mL
Appearance [1, 6]: Solution
Mean recovery [1, 6]: 116.30%
Found conc. [1, 6]: 46.51 mg/mL
Formulability in solution compared to free base Form A ([1]; with polymers, all excipients considered): better formulability in solution
Solubility ([2]; first experiment (saturation conc. around 25-30 mg/ml), 5 min, listed as mesylate Form 2, 5 min): 31.44 mg/mL
Solubility ([2]; first experiment, 10 min, listed as mesylate Form 2, 10 min): 31.92 mg/mL
Solubility ([2]; first experiment, 20 min, listed as mesylate Form 2, 20 min): 31.65 mg/mL
Solubility ([2]; first experiment, 40 min, listed as mesylate Form 2, 40 min): 31.16 mg/mL
Solubility ([2]; first experiment, 60 min): ≥ 25 mg/mL
Solubility ([2]; first experiment, 60 min, listed as mesylate Form 2, 60 min): 31.30 mg/mL
Solubility ([2]; second experiment (saturation conc. 170 mg/ml mesylate, 100 mg/ml esylate), 0 min, listed as mesylate Form 2, 0 min): 19.25 mg/mL
Solubility ([2]; second experiment, 15 min, listed as mesylate Form 2, 15 min): 151.67 mg/mL
Solubility ([2]; second experiment, 30 min, listed as mesylate Form 2, 30 min): 159.96 mg/mL
Solubility ([2]; second experiment, 60 min, listed as mesylate Form 2, 60 min): 169.82 mg/mL
Dissolution ([2]; first experiment, saturation conc. around 25-30 mg/ml): completely dissolved
XRPD pattern change ([3]; 25 °C/60% RH): no significant changes
XRPD pattern change ([3]; 40 °C/75% RH): no significant changes
% area main peak ([3]; ES+, 25 °C/60% RH closed): 91.6 % area
% area main peak ([3]; ES+, 25 °C/60% RH open): 91.6 % area
% area main peak ([3]; ES+, 40 °C/75% RH closed): 91.6 % area
% area main peak ([3]; ES+, 40 °C/75% RH open): 91.6 % area
% area main peak ([3]; ES−, 25 °C/60% RH closed): 100.0 % area
% area main peak ([3]; ES−, 25 °C/60% RH open): 100.0 % area
% area main peak ([3]; ES−, 40 °C/75% RH closed): 100.0 % area
% area main peak ([3]; ES−, 40 °C/75% RH open): 100.0 % area
% area main peak ([3]; UV, 25 °C/60% RH closed): 98.4 % area
% area main peak ([3]; UV, 25 °C/60% RH open): 98.4 % area
% area main peak ([3]; UV, 40 °C/75% RH closed): 98.4 % area
% area main peak ([3]; UV, 40 °C/75% RH open): 98.4 % area
Stability (overall) ([3]; listed as mesylate salt): stable for several months
SMILES: COc1cc(-c2ccc(F)cn2)cc2c(N[C@H](C)c3noc(C)n3)ncnc12 [mesylate salt Form 2, (R)-6-(5-fluoropyridin-2-yl)-8-methoxy-N-(1-(5-methyl-1,2,4-oxadiazol-3-yl)ethyl)quinazolin-4-amine]
Solubility compared to free base Form A ([2]; 60 minutes): consistently higher solubility than the free base Form A during the 60 minutes time
Stability ([3]; 25 °C/60% RH closed): remained stable throughout the entire test period
Stability ([3]; 25 °C/60% RH open): remained stable throughout the entire test period
Stability ([3]; 40 °C/75% RH closed): remained stable throughout the entire test period
Stability ([3]; 40 °C/75% RH open): remained stable throughout the entire test period
Stability (overall) [3]: excellent stability for at least one year at RT; also recorded: remains stable in dry form for at least one year at different conditions
